In the SangsterLogP compilation:

Conditions: pH 2.0

Compound	logD
CCN(CC)S(=O)(=O)c1ccc(C(=O)N2CCNC(=O)[C@H]2CC(=O)OC)cc1	1.14
CC[C@@H](OC(=O)CNC(=O)c1ccc(N2C(=O)c3ccccc3C2=O)cc1)C(=O)c1ccccc1	4.15

Results, then the compound that gave them:

logD	Compound
3.95	COc1ccccc1NC(=S)N[C@H](NC(=O)c1ccccc1C)C(Cl)(Cl)Cl
4.37	Cc1ccccc1O[C@@H]1C(=O)N(Cc2ccc3c(c2)OCO3)[C@H]1c1ccc2c(c1)OCO2
3.37	CN(C)S(=O)(=O)c1cccc(Cn2c(=O)c(=O)n(Cc3ccccc3)c3ccc(Cl)cc32)c1

Same assay, conditions: pH 5.0

Compound	logD
CCOc1cc([C@H]2[C@@H]3CN(C(=O)OC(C)(C)C)CC=C3C(C#N)=C(N)C2(C#N)C#N)ccc1OC(C)C	5.83
C[C@]12CC[C@@H]3C[C@@]1(C(=O)NCC(F)(F)F)OC[C@@]32C	3.11
COC(=O)c1ccc([C@@H]2C3=C(C[C@H](c4ccco4)CC3=O)Nc3ccccc3N2C(=O)C2CC2)cc1	4.44
C[C@@H](Oc1ccc(F)cc1F)C(=O)c1cn(-c2ccc(OC(F)(F)F)cc2)nn1	5.83
COc1cc([C@H]2NC(=O)NC(C)=C2C(=O)OC(C)C)ccc1OC(F)F	3.75
COC(=O)c1ccc(N(C(=O)C(F)(F)F)[C@@H]2C=CS(=O)(=O)C2)cc1	2.05
CCCN(CCC)S(=O)(=O)c1ccc(C(=O)OCCN2C(=O)C3C4c5ccccc5C(c5ccccc54)C3C2=O)cc1 (centres undefined)	4.17
CC1(C)OC[C@H](COc2c(F)c(N3CCOCC3)nc(F)c2Cl)O1	4.07
CS(=O)(=O)N(CC(=O)Nc1ccccc1C(=O)NCc1ccco1)c1ccc(Cl)cc1	4.32
COc1cc2c(cc1OC)[C@@]1(C)N(CC2)C(=O)OC12CCCCC2	3.47
CCCS(=O)(=O)c1c(S(=O)(=O)CCC)c2c3ccccc3ccn2c1C(=O)c1ccccc1	4.48
COc1cc(C#N)ccc1OC(=O)/C=C/c1cccc(F)c1	4.46
Cc1onc(-c2c(F)cccc2Cl)c1C(=O)OCC(=O)N1[C@H](C)CCC[C@H]1C	4.38
CCCCOc1ccc(/C=C/C(=O)NC(C)C)cc1	4.45
CN(C)C(=O)[C@H]1OC(C)(C)O[C@@H]1C(=O)N(C)C	1.49
COc1ccc([C@H]2C(C#N)=C(N)N(c3ccc(Cl)cc3)C3=C2C(=O)CC(C)(C)C3)cc1OC	4.34
O=C1[C@H]2[C@@H](C(=O)N1c1ccccc1)C1(O[C@H]2c2ccccc2)C(=O)c2ccccc2C1=O	4

Compound	logD
O=C(OCCN1C(=O)c2ccccc2C1=O)[C@@H]1C[C@H](O)CN1S(=O)(=O)c1ccc(Cl)cc1	3.65
Cc1cc(C(=O)CN2C(=O)[C@@H]3CC=CC[C@H]3C2=O)c(C)n1Cc1ccc2c(c1)OCO2	4.38
COC(=O)[C@H]1OC(c2ccccc2)O[C@H]1C(=O)OC (some centres undefined)	2.49
C=CCN1C(=S)N(c2ccc(CC)cc2)[C@H]2CS(=O)(=O)C[C@@H]21	2.86
C[C@@H]1CCC2[C@]3(C)COC(C)(C)O[C@H]3CC[C@]2(C)[C@@]12CCC1(COC(=O)C1)O2 (some centres undefined)	4.24
C[C@@H](NC(=O)CN(C1CCCCC1)S(=O)(=O)c1ccccc1)c1ccccc1	4.9
CC[C@H](C(=O)N1CCCN(C(=O)[C@@H](CC)c2ccccc2)CC1)c1ccccc1	4.93
FC(F)Oc1ccc(NC(=S)NC[C@@H]2CCCO2)cc1Cl	3.74
C[C@@H](NC(=O)C1CCN(C(=O)c2ccc(F)cc2)CC1)c1ccccc1	3.48
O=C(/C=C/c1ccc2c(c1)OCO2)NCCCCNC(=O)/C=C/c1ccc2c(c1)OCO2	4.59
CCN(CC)S(=O)(=O)N1CCC[C@H](C(=O)NC2CCCCC2)C1	3.58
COc1ccc([C@@H]2CC(=O)N(c3sc4c(c3C#N)CCCC4)C3=C2C(=O)CCC3)c(OC)c1	4.55
COc1cc2c(cc1OC)[C@H](COc1ccc3c(C)cc(=O)oc3c1)N(C(=O)C1CCCCC1)CC2	5.07
COc1ccc([C@@H]2CCCC[C@H]2O)cc1	2.85
CC1(C)[C@H](C(=O)N2CCOCC2)CC[C@]1(C)C(=O)N1CCOCC1	2.46
COc1cc(/C=C/C(=O)N[C@H]2CCCc3ccccc32)cc(OC)c1OC	4.27
O=C(c1nn2c(c1Br)N[C@H](c1cccs1)C[C@H]2C(F)(F)F)N1CCCC1	4.47

Next, values leading:

logD	Compound
3.73	CC1=NN(C(=O)c2ccccc2Cl)[C@](O)(c2ccc(Cl)cc2)C1
4.34	Cc1cc(Cl)ccc1NC(=S)NCCc1c[nH]c2ccccc12
4.71	Cc1ccc(C(=O)COc2cccc(N3C(=O)[C@@H]4[C@H]5CC[C@H](C5)[C@@H]4C3=O)c2)cc1C
5.26	COc1ccc(N(C(=O)C2CCCCC2)S(=O)(=O)c2ccc3c4c(cccc24)C(=O)N3C)cc1
4.73	O=C(CN1C(=O)c2ccccc2S1(=O)=O)Nc1ccc(S(=O)(=O)N2CCCCCC2)cc1
6.25	CC(=O)c1cccc(N2C(=O)[C@@H]3[C@H](C2=O)[C@@H]2C=C[C@H]3C2=C(c2ccc(C)cc2)c2ccc(C)cc2)c1
6.96	CCN1C(=O)/C(=C2\SC(=S)N(Cc3ccc(OC)cc3)C2=O)c2cc(Br)ccc21
4.32	O=C1Nc2cc(C(=O)NC3CC3)ccc2S/C1=C\c1ccccc1
3.89	Cc1c(NC(=O)[C@@H]2CCCCN2S(=O)(=O)c2ccc(Cl)cc2)c(=O)n(-c2ccccc2)n1C
3.9	Cc1ccc(NC(=O)[C@@H]2CCCN2C(=O)OC(C)(C)C)cc1C
3.81	COc1cccc(NC(=O)[C@H](OC(=O)C2=COCCO2)c2ccccc2)c1
4.73	CC(=O)c1c(C)[nH]c(C(=O)COC(=O)c2ccccc2NC(=O)c2ccco2)c1C
5.51	CCCC[C@H](CC)Cn1c(SCC(=O)Nc2ccc(OC)cc2)nc2c1c(=O)n(C)c(=O)n2C
3.99	Cc1c(N[C@@H](NC(=O)c2cccc([N+](=O)[O-])c2)C(Cl)(Cl)Cl)c(=O)n(-c2ccccc2)n1C

Same assay, conditions: pH 6.5

Compound	logD
Cc1cc2c(cc1C)N[C@@H](c1cc3c(cc1Cl)OCO3)C1=C(CC(C)(C)CC1=O)N2	4.38
CCCOc1ccc(N2C(=O)C[C@H](N3CCNC3=S)C2=O)cc1	2.68
C[C@H]1CCc2nc(NC(=O)c3ccc(F)c(F)c3)sc2C1	4.79
O=C(CCCCCN1C(=O)/C(=C\c2cccs2)SC1=S)N1CCOCC1	4.92
CC(C)(C)S(=O)(=O)/C(C#N)=C/Nc1ccc(OC(F)(F)F)cc1	4.28
CC[C@@H]1CCCCN1C(=O)COc1cccc2c1CCN(Cc1ccc(Cl)cc1)C2=O	5.23
COc1ccccc1N(CCOC(=O)[C@@H]1CC(=O)N(c2ccccc2)C1)C1=NS(=O)(=O)c2ccccc21	2.5
C[C@H]1CCCC[C@@H]1NC(=O)COc1ncnc2ccccc12	3.11

The remaining lines, values ahead:

logD	Compound
5.84	CN(c1ccccc1)S(=O)(=O)c1ccc(C(=O)/N=c2/sc3cc([N+](=O)[O-])ccc3n2C)cc1
4.75	Cc1cccc(NC(=O)C[C@@H]2S/C(=N\c3c(C)cccc3C)N(C)C2=O)c1
6.36	O=C(CN1C(=O)/C(=C2\SC(=S)N(Cc3ccco3)C2=O)c2ccccc21)Nc1ccc(F)cc1

Same assay, conditions: pH 7.0

logD	Compound
4.93	CC(=O)Nc1ccc([C@H]2C(C#N)=C(N)Oc3c2c(C)nn3-c2cccc(Cl)c2)cc1
5.28	Cn1c([C@@H](C#N)C(=O)[C@@H](Sc2ccccc2)c2ccccc2)nc2ccccc21
4.94	O=C(/C=C/c1ccccc1)Nc1ccc(N2CCN(C(=O)c3cccs3)CC2)cc1

Same assay, conditions: pH 7.3

logD	Compound
5.32	CC(C)[C@@H](C(=O)Nc1nc(-c2ccc(S(=O)(=O)N3CCOCC3)cc2)cs1)N1C(=O)c2ccccc2C1=O
4.34	O=C(c1cccc(S(=O)(=O)N2CCOCC2)c1)N1CCN(c2cccc(Cl)c2)CC1
3.95	CCOc1ccc([C@@H]2Oc3nc(SC)nnc3-c3ccccc3N2C(=O)CC)cc1OC
5.49	O=C1C(=O)N(OCc2ccc(Br)cc2)[C@H]2CCCC[C@@H]2N1OCc1ccc(Br)cc1

Same assay, conditions: pH 8.0

Compound	logD
CCCc1[nH]nc2c1[C@@]1(C(=O)N(CC(N)=O)c3ccccc31)C(C(=O)OC)=C(N)O2	4.48
COc1ccc([C@@H]2Nc3ccccc3C(=O)N2c2ccccc2)cc1COc1ccc(NC(C)=O)cc1	4.65

Same assay, conditions: pH 9.2

logD	Compound
4.12	Cc1cc(C(=O)NCCc2c(C)[nH]c3ccccc23)ccc1[N+](=O)[O-]

Same assay, conditions: pH 10.0

Compound	logD
CC(=O)/N=c1/sc2nc3ccccc3nc2n1N(C(C)=O)C(C)=O	1.1
CC[C@@H]1CCCCN1C(=O)[C@H]1CC(c2cc(Cl)c(OC)cc2OC)=NO1	4.55
CC(C)OC(=O)C1=C(CSc2nc3c(cc2C#N)CCCCC3)OC(N)=C(C#N)[C@@H]1c1ccncc1	5.43
N#CC1=C(N)OC2=C(C(=O)C[C@H](c3ccccc3)C2)[C@H]1c1ccccc1F	3.07
CC(=O)c1ccc(N2CCN(C(=O)/C=C/c3ccc(C)o3)CC2)cc1	4.3
Cc1cc(C(F)(F)F)nn1[C@@H](C)c1nnc(Nc2ccn(Cc3ccccc3)n2)s1	5.34
CCOCCOC(=O)[C@H](C)n1cnc2sc3c(c2c1=O)CC[C@H](C)C3	4.25
COc1cc([C@@H]2Nc3cc(C)c(C)cc3NC3=C2C(=O)CC(C)(C)C3)cc(OC)c1OC(C)=O	4.21
O=[N+]([O-])c1ccccc1/C=N/c1ccc(/N=C/c2ccccc2[N+](=O)[O-])cc1	2.95

Further lines, results first:

logD	Compound
3.83	O=C1[C@@H]2C3c4ccccc4C(c4ccccc43)[C@@H]2C(=O)N1c1nccs1
3.89	CCOCCOC(=O)C1=C(C)NC2=C(C(=O)CCC2)[C@@H]1c1ccc(C)cc1
5.8	CC/N=C1\S/C(=C\c2cn(CC(=O)Nc3cccc(C)c3)c3ccccc23)C(=O)N1CC
4.19	C[C@H]1CN(C(=O)c2cc(-c3ccc4c(c3)OCO4)nc3ccccc23)C[C@H](C)O1

Same assay, conditions: pH 10.5

logD	Compound
5.39	CCc1cc2c3c(c1)[C@]1(C(=O)N3C(C)(C)C=C2C)C(C#N)=C(N)OC2=C1C(=O)CC(C)(C)C2
2.96	CCOC(=O)C1CCN(C(=O)c2ccc(Cl)c(/N=C3/N[C@@H]4CS(=O)(=O)C[C@@H]4S3)c2)CC1
5.4	N#C/C(=C/c1ccc2c(c1)OCO2)C(=O)N=C1c2ccccc2CN1c1cccc([N+](=O)[O-])c1
3.75	O=[N+]([O-])c1ccc(-c2nc3nc4ccccc4nc3n2C[C@@H]2CCCO2)cc1
5.45	COc1ccc([C@H]2C(C#N)=C(N)N(c3ccccc3C(F)(F)F)C3=C2C(=O)CCC3)cc1CSc1ccccn1
3.61	CC[C@@H]1CCCCN1C(=O)CSc1nc(C)cc(C)n1

Compound	logD
Cc1cc(C)n(CCOC(=O)[C@H]2[C@H](C=C(Cl)Cl)C2(C)C)n1	4.76
